Assay results published in patent publication US20230324392A1, “METHODS AND COMPOSITIONS FOR TARGETING CYTOSOLIC DSDNA SIGNALING IN CHROMOSOMALLY UNSTABLE CANCERS” (MEMORIAL SLOAN KETTERING CANCER CENTER, priority 2020, published 2023).
“And” between values parts separate entries of the source, which are not always exact repeats. Equal entries are not always repeated.

How the values were obtained:
STING = target: T1, STING (Mus musculus, UniProt Q3TBT3); assay: ISG expression in cGAMP-transfected Cgas-KO 4T1 cells with or without C-176; assay type: cell-based; settings: in the presence of C-176
T1 construct: endogenous in cells; host or cells: Cgas-KO 4T1 cells (mouse mammary carcinoma; parental line from ATCC)
T1 sequence (Q3TBT3 1-378): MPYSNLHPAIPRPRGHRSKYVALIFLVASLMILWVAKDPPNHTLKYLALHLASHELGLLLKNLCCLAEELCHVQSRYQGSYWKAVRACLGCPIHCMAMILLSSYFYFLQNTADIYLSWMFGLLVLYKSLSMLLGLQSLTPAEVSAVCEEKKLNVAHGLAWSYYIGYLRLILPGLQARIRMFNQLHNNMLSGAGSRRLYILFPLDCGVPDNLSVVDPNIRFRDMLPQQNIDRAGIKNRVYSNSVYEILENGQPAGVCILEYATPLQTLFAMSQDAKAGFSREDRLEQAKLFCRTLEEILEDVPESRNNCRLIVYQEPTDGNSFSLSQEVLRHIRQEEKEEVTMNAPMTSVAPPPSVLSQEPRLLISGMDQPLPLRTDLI
Description: Quantitative PCR for STING inhibition study: RNA was extracted from cells with Trizol (Invitrogen, Carlsbad, CA, #15596026). cDNA was synthesized using the RNA to cDNA EcoDry™ Premix (Double Primed) kit (Takara #639549). Real-time PCR was performed to measure the relative mRNA expression levels of ISGs and the control GAPDH using Luna® Universal qPCR Master Mix (NEB, IPSWICH, MA, M3003L). The qPCR reaction and analysis were performed on a QuantStudio 6 platform (Life technology, Carlsbad, CA). The sequence of primers for Ccl5 is 5′-[sequence]-3′ and 5′-[sequence]-3′. […] The sequence for primers for Gapdh is 5′-[sequence]-3′ and 5′-[sequence]-3′.

CT26 cells = assay: Tail vein inoculation of CT26 cells in BALB/c mice, metastasis and survival; assay type: in vivo, mouse
Description: Animal metastasis studies: Animal experiments were performed in accordance with protocols approved by the MSKCC Institutional Animal Care and Use Committee. […] There was no need to randomize animals. Investigators were not blinded to group allocation. For tail vein injections, 5×10^4 4T1, 2.5×10^4 B16F10, or 10^5 CT26 cells were injected into the tail vein of 6-7-week old BALB/c (4T1 and CT26) or C57BL/6 (B16F10) mice. Metastasis was primarily assessed through overall survival. Overall survival endpoint was met when the mice died or met the criteria for euthanasia under the IACUC protocol. Animals were censored when death was confirmed to have occurred due to metastasis-unrelated causes such as injury or death during injection, surgery, or anesthesia. Surface lung metastases were assessed at endpoint by direct visual examination after euthanasia at which points lungs were perfused and fixed in 4% paraformaldehyde (4T1 and B16F10 experiments) or stained using India-ink (CT26 experiments). […] H-151 was reconstituted in DMSO with concentration of 100 mM. Each mouse was injected intraperitoneally with 7.5 μL of H-151 stock solution in 200 μL of PBS with 0.1% Tween −80.

[1] = Blood counts of mice treated with C-176; assay type: in vivo, mouse; settings: for NEUT: reference range 9.86-39.11; for LYMPH: reference range 48.81-83.82
[2] = automated differential, animals 1, 2
[3] = complete blood count, animals 1, 2
[4] = manual differential, animals 1, 2

O=C(Nc1ccc(I)cc1)c1ccc([N+](=O)[O-])o1 [C-176]
effect on ISG induction by cGAMP transfection (STING): suppressed
number of CT26 lung metastasis (CT26 cells; 13 days after tail vein injection, daily IP): significant reduction
survival of tumor bearing mice (CT26 cells; CT26, BALB/c, IP, vs vehicle): significantly prolonged survival
BASO ([1]; automated differential, animals 1, 2, reference range 0.00-1.84): 0% and 0.1%
EO# ([1]; automated differential, animals 1, 2, reference range 0.01-0.49): 0.1 K/uL and 0.16 K/uL
MONO# ([1]; automated differential, animals 1, 2, reference range 0.21-1.37): 0.22 K/uL and 0.25 K/uL
NEUT# ([1]; automated differential, animals 1, 2, reference range 0.58-3.83): 2.98 K/uL and 4.69 K/uL
LYMPH# ([1]; automated differential, animals 1, 2, reference range 2.22-11.56): 3.35 K/uL and 3.14 K/uL
MONO ([1]; automated differential, animals 1, 2, reference range 3.29-14.33): 3.3% and 3%
WBC# ([1]; automated differential, animals 1, 2, reference range 3.48-14.84): 6.65 K/uL and 8.25 K/uL
NEUT [1, 2]: 44.8% and 56.9%
LYMPH [1, 2]: 50.4% and 38.1%
EO ([1]; automated differential, animals 1, 2, reference range printed 7 0.07-4.91^): 1.5% and 1.9%
PDW [1, 3]: 9.9 fL and 10.3 fL
RDW-SD [1, 3]: 29.1 fL and 29.6 fL
RET ([1]; complete blood count, animals 1, 2, reference range 2.56-4.56): 4.04% and 5.29%
MPV ([1]; complete blood count, animals 1, 2, reference range 4.6-5.9): 7 fL and 7.3 fL
RBC ([1]; complete blood count, animals 1, 2, reference range 6.93-12.24): 10.18 M/uL and 9.5 M/uL
HGB ([1]; complete blood count, animals 1, 2, reference range 12.4-20.5): 15.3 g/dL and 14.4 g/dL
MCH ([1]; complete blood count, animals 1, 2, reference range 13.0-17.6): 15 pg and 15.2 pg
RDW-CV ([1]; complete blood count, animals 1, 2, reference range 16.9-23.5): 25.4% and 24%
MCHC ([1]; complete blood count, animals 1, 2, reference range 23.3-33.1): 32.3 g/dL and 31.9 g/dL
HCT ([1]; complete blood count, animals 1, 2, reference range 42.1-68.3): 47.3% and 45.2%
MCV ([1]; complete blood count, animals 1, 2, reference range 50.7-64.4): 46.5 fL and 47.6 fL
RET# ([1]; complete blood count, animals 1, 2, reference range 294-444): 411.3 K/uL and 502.6 K/uL
PLT ([1]; complete blood count, animals 1, 2, reference range 420-1698): 1137 K/uL and 1026 K/uL
BAND ([1]; manual differential, animal 1): 1%
EO ([1]; manual differential, animals 1, 2, reference range 0.07-4.91): 2% and 1%
NEUT [1, 4]: 45% and 57%
LYMPH [1, 4]: 52% and 42%
